Experimental data reported in patent publication US10126316B2, “Systems and methods for the measurement of tacrolimus in oral fluids by liquid chromatography tandem mass spectrometry” (Rhode Island Council on Postsecondary Education, Statutory …, priority 2016, dated 2018).

Tests used:
[1] = Tacrolimus concentration in oral fluid and whole blood of kidney transplant recipients by LC-MS/MS (Example 1 patient samples); assay type: in vivo, human
Experimental: The chromatographic conditions were optimized and the gradient elution described here provided the best separation of TAC and IS from suppressing phospholipid ions. Chromatographic separation was achieved using a mobile phase which consisted of water containing 2 mM ammonium acetate/0.1% (v/v) formic acid (solvent A); and MeOH containing 2 mM ammonium acetate/0.1% (v/v) formic acid (solvent B). The mobile phase was delivered at 0.4 mL/min flow rate. The run cycle started at 50% solvent (B) and increased gradually to 98% over 0.5 min and was maintained at this level until 1.8 min. To re-equilibrate the column for the next run, solvent (B) decreased within 0.1 min to 50% and remained at 50% until the end of the run at 2.2 minutes. The diversion valve was set to deliver the first 0.70 min and from 1.20 min until the end of each run to waste. The elution time of TAC and IS was 1.0 min.
Mass spectrometry detection and quantification of TAC and ASC was performed in positive electrospray ionization (ESI) and multiple reaction monitoring (MRM) modes. Intellistart tool was used to obtain initial mass spectrometry parameters in low mass resolution analysis mode followed by manual tuning to achieve highest possible sensitivity. Final mass spectrometry parameters were as following: collision energy (CE)=22 and 20 for ASC and TAC respectively, cone voltage (CV)=28, capillary voltage (kV)=1.50, source temperature (° C.)=150, cone gas flow (L/hr)=25, desolvation gas flow (L/hr)=1000, and collision gas flow (mL/min)=0.15. Ammonium adducts [M+NH4]^+ were selected as precursors for MRM with transitions (m/z, Q1→Q3) of (m/z, 809.30→756.30) and (m/z, 821.30→768.35) for ASC and TAC, respectively.
Study protocols were approved by Institutional Review Board at Rhode Island Hospital (Providence, R.I.). After giving informed consent, kidney transplant recipients attending kidney transplant clinics were recruited. […] All blood and OF samples were kept on ice until transferred to the Biomedical and Pharmaceutical Sciences (BPS) department at University of Rhode Island and stored at −80° C. until analyzed. […]

[2] = Tacrolimus concentration in paired oral fluid and blood samples, all samples of Example 2; assay type: in vivo, human
Excerpt: Study population: Samples included in this study were collected during two clinical studies from stable kidney transplant recipients. Protocol for each clinical study was approved by the Institutional Review Board of Rhode Island Hospital (Providence, R.I.). On the study day, all patients underwent a physical examination by the study physician and were asked to sign an informed consent prior to sample collection. All patients were on a triple immunosuppressant regimen that included tacrolimus, prednisone, and mycophenolic acid. All blood and OF samples were kept on dry ice until transfer to the Clinical Pharmacokinetics Research Laboratory at the University of Rhode Island and subsequent storage at −80° C. until further analysis.
Upon thawing saliva samples, an aliquot of saliva was weighed with an analytical balance and the weight was recorded to establish the drug concentration as pg/mg weight. Moreover, the pH of saliva was measured by an Orion STAR A111 pH meter equipped with Micro Electrode from Thermo Scientific (Waltham, Mass., USA). To assess and quantify possible blood contamination of OF, a transferrin kit from Salimetrics LLC (State College, Pa., USA) was used (the validated assay range is ≤6.6 mg/dL). Transferrin (TRNs) is a plasma protein (Mw=76,000) that is used as a biomarker for presence of blood in OF. Transferrin quantification was performed using SpectraMax M5e Microplate Reader (Sunnyvale, Calif., USA).
(§1) Sample extraction was preformed mixing 200 μL of the blood sample with 800 μL of precipitating solution [ZnSO4 (17.28 g/L) in water and methanol (30:70, v/v) containing 100 ng/mL ascomycin as internal standard]. After vortex mixing, samples were centrifuged for 10 min at 13,000 rpm.
(§2) The concentration of tacrolimus in OF was measured using a validated LC-MS/MS method. […] TAC was eluted by gradient elution with 2 mM ammonium acetate/0.1 formic acid in water (mobile phase A) and in methanol (mobile phase B) at 0.4 mL/min flow rate. Initial mobile phase comprised of 50% solvent B, increased gradually to 98% over 0.5 min and maintained at this level until 1.8 min. Then mobile phase was returned to initial conditions within 10 s and maintained until the end of the run at 2.2 min to recondition the column for the next run. The elution time of TAC and internal standard was 1.0 min.
(§3) A simple sample preparation and extraction procedure was followed. Briefly, 50 μL of homogenized OF sample was added to 100 μL of ACN precipitating solvent containing internal standard (ascomycin, 600 ng/L). After vortex mixing for 10 s, the mixture was centrifuged at 10,000 g for 5 min at 20° C. The supernatant was then transferred to an auto-sampler vial, and 10 μL was injected onto LC-MS/MS. The dynamic range of the assay was 30-4,800 pg/mL. […] The lower limit of quantification (LLOQ) for the assay was set at […] Acceptance criteria for quality controls (QCs) included in the assay was accuracy between 85-115% and CV <15%. Selectivity was assessed by inspecting the presence of noise or peaks in chromatograms blank OF samples injections (from 6 donors) and a comparison with LLOQ chromatogram.

[3] = Study A: 12-hour profile of tacrolimus in oral fluid and blood; assay type: in vivo, human; conditions: for OF/blood Conc. (*100) / Tacrolimus Conc. in OF / Tacrolimus blood Conc.: geometric mean (95% CI)
Experimental: Study A. Characterization of 12-hour profile of tacrolimus in OFs: The objective of this study was to obtain parallel blood and saliva samples for 12 h after the morning dose tacrolimus. On the morning of the study day, a venous blood sample (about 4 mL) was collected in ethylenediaminetetraacetic acid (EDTA) coated tubes. Simultaneously, OF samples were collected by passive drool (resting) in a siliconized plastic cup. After the administration of morning dose of immunosuppressive agents including tacrolimus, serial samples were collected at certain time points post-dose for 12-hour. All patients fasted overnight but prior to the start of sample collection, took a protein bar with their morning medication together with a glass of water. Thus, the samples obtained in this study was regarded as samples collected at non-fasting state.
as §1, §2, §3

[4] = Study B: effect of oral fluid sample collection method on tacrolimus concentration; assay type: in vivo, human; conditions: geometric mean (95% CI)
Experimental: Study B. Characterization of the effect of OF sample collection method: Blood samples were collected at pre-dose (C0) and then at two-hour after dose (C2). Patients have arrived at the hospital after an overnight fast and were remained fasted during collection of C0 samples. Matching OF samples were collected within ±5 min from blood sample time by passive drool (resting sample), after mouth rinsing with water (rinsed sample), and immediately after taking a sour candy to stimulate saliva production (stimulated sample). For the following samples, patients were asked to place a small piece of a commercial candy containing citric and tartaric acids (Sour Patch Kids, Mondelēz International, East Hanover, N.J., USA) in their mouth for 10 s with continues tongue movement. After C0 samples collection, patients were given a voucher for breakfast and were asked to report back to the study location shortly before sample collection at two-hour after dose (C2). The same process of blood and corresponding OF sample collection was followed at this time. The C2 samples were regarded as fed state.
as §1, §2, §3

[5] = Stability studies of TAC in oral fluid QC samples; assay type: physicochemical, human; conditions: for Stability, % Accuracy, Bench top / Stability, % Accuracy, Short-term 1 weeks / Stability, % Accuracy, Short-term 4 weeks / Stability, % Accuracy, Freeze & thaw / Stability, % Accuracy, Auto-sampler 24 hrs / Stability, % Accuracy, Auto-sampler 48 hrs: N = 3; for Stability, % Accuracy, Short-term 1 weeks / Stability, % Accuracy, Short-term 4 weeks: storage at −80° C.; for Stability, % Accuracy, Freeze & thaw: three freeze and thaw cycles; for Stability, % Accuracy, Auto-sampler 24 hrs / Stability, % Accuracy, Auto-sampler 48 hrs: extracted
Experimental: Stability studies were performed by measuring TAC concentrations in QC1 and QC3, in three replicates. Freeze and thaw (after three freeze and thaw cycles), bench-top, auto-sampler (by re-injecting one of validation batch after it was left in the auto-sampler for 24 h and 48 h), and short-term stability up to one month were investigated.

[6] = cited from earlier work

C=CC[C@@H]1/C=C(\C)C[C@H](C)C[C@H](OC)[C@H]2O[C@@](O)(C(=O)C(=O)N3CCCC[C@H]3C(=O)O[C@H](/C(C)=C/[C@@H]3CC[C@@H](O)[C@H](OC)C3)[C@H](C)[C@@H](O)CC1=O)[C@H](C)C[C@@H]2OC.O [Tacrolimus]
Concentration of TAC in OF (range) ([1]; 181 OF samples, stable transplant recipients): 0.0117 to 2.8644 ng/mL | Calculated concentration of the one OF sample lower than LLOQ ([1]; one of 181 OF samples): around 8.5 pg/mL | Concentration of TAC in whole blood (range) ([1]; stable transplant recipients): 1.7 to 46.1 ng/mL | Tacrolimus concentration in blood (mean±SD) ([2]; 276 paired samples): 7.4 ± 5 ng/mL | Tacrolimus concentration in blood (median) ([2]; 276 paired samples): 5.9 ng/mL | Concentration of tacrolimus in OFs (mean±SD) ([2]; homogenized OFs): 0.744 ± 0.666 ng/mL | Concentration of tacrolimus in OFs (median) ([2]; homogenized OFs): 0.505 ng/mL | Concentration of tacrolimus corrected for the weight of homogenized OF (mean±SD) ([2]; in vivo): 540 ± 485 pg/mg | Concentration of tacrolimus corrected for the weight of homogenized OF (median) ([2]; in vivo): 367 pg/mg | Concentration of TAC in blood ([3]; 80 paired samples, 10 patients, fed state): 5.7 ± 2.6 ng/mL | Concentration of TAC in oral fluids ([3]; 80 paired samples, 10 patients, passive drool, fed state): 0.885 ± 0.65 ng/mL | OF/blood Conc. (*100) ([3]; All other times): 14 (11, 16) | Tacrolimus Conc. in OF ([3]; All other times): 783 (627, 878) pg/mL | Tacrolimus blood Conc. ([3]; All other times): 5.5 (5.0, 5.9) ng/mL | OF/blood Conc. (*100) ([3]; Peak (C2)): 11 (7, 16) | Tacrolimus Conc. in OF ([3]; Peak (C2)): 573 (411, 599) pg/mL | Tacrolimus blood Conc. ([3]; Peak (C2)): 5.5 (4.6, 6.5) ng/mL | OF/blood Conc. (*100) ([3]; Trough (C0, incl. C12)): 11 (7, 18) | Tacrolimus Conc. in OF ([3]; Trough (C0, incl. C12)): 430 (272, 680) pg/mL | Tacrolimus blood Conc. ([3]; Trough (C0, incl. C12)): 3.8 (3.1, 4.7) ng/mL | OF/blood Conc. (*100) ([4]; C0 (fasted), Resting): 19 (14, 24) | Tacrolimus Conc. in OF ([4]; C0 (fasted), Resting): 1003 (747, 1348) pg/mL | Tacrolimus blood Conc. ([4]; C0 (fasted), Resting): 5.5 (4.7, 6.3) ng/mL | OF/blood Conc. (*100) ([4]; C0 (fasted), Rinsed): 11 (9, 13) | Tacrolimus Conc. in OF ([4]; C0 (fasted), Rinsed): 584 (436, 782) pg/mL | Tacrolimus blood Conc. ([4]; C0 (fasted), Rinsed): 5.4 (4.7, 6.3) ng/mL | OF/blood Conc. (*100) ([4]; C0 (fasted), Stimulated): 3 (2, 4) | Tacrolimus Conc. in OF ([4]; C0 (fasted), Stimulated): 164 (119, 226) pg/mL | Tacrolimus blood Conc. ([4]; C0 (fasted), Stimulated): 5.5 (4.8, 6.2) ng/mL | OF/blood Conc. (*100) ([4]; C2 (fed), Resting): 7 (5, 9) | Tacrolimus Conc. in OF ([4]; C2 (fed), Resting): 635 (437, 923) pg/mL | Tacrolimus blood Conc. ([4]; C2 (fed), Resting): 9.4 (7.6, 11.7) ng/mL | OF/blood Conc. (*100) ([4]; C2 (fed), Rinsed): 5 (4, 7) | Tacrolimus Conc. in OF ([4]; C2 (fed), Rinsed): 468 (347, 630) pg/mL | Tacrolimus blood Conc. ([4]; C2 (fed), Rinsed): 9.0 (7.4, 11.0) ng/mL | OF/blood Conc. (*100) ([4]; C2 (fed), Stimulated): 3 (2, 4) | Tacrolimus Conc. in OF ([4]; C2 (fed), Stimulated): 235 (167, 330) pg/mL | Tacrolimus blood Conc. ([4]; C2 (fed), Stimulated): 8.8 (7.6, 10.2) ng/mL | Stability, % Accuracy, Bench top ([5]; QC1 (30 pg/mL) in OF): 111.1% | Stability, % Accuracy, Short-term 1 weeks ([5]; QC1 (30 pg/mL) in OF): 98.4% | Stability, % Accuracy, Short-term 4 weeks ([5]; QC1 (30 pg/mL) in OF): 100.8% | Stability, % Accuracy, Freeze & thaw ([5]; QC1 (30 pg/mL) in OF): 108.2% | Stability, % Accuracy, Auto-sampler 24 hrs ([5]; QC1 (30 pg/mL)): 105.3% | Stability, % Accuracy, Auto-sampler 48 hrs ([5]; QC1 (30 pg/mL)): 102.5% | Stability, % Accuracy, Bench top ([5]; QC3 (1200 pg/mL) in OF): 98.8% | Stability, % Accuracy, Short-term 1 weeks ([5]; QC3 (1200 pg/mL) in OF): 98.9% | Stability, % Accuracy, Short-term 4 weeks ([5]; QC3 (1200 pg/mL) in OF): 102.9% | Stability, % Accuracy, Freeze & thaw ([5]; QC3 (1200 pg/mL) in OF): 111.9% | Stability, % Accuracy, Auto-sampler 24 hrs ([5]; QC3 (1200 pg/mL)): 102.2% | Stability, % Accuracy, Auto-sampler 48 hrs ([5]; QC3 (1200 pg/mL)): 105.6% | Stability in extracted matrix ([5]; auto-sampler, up to 48 h): stable in extracted matrix for up to 48 h | Fraction of tacrolimus distributed into red blood cells [6]: About 85% | Fraction of total TAC in blood present as free (unbound) form [6]: 1%
